# According to patent publication US9624241B2 (Incyte Corporation, priority 2013, dated 2017):
# Structures can show the parent of a compound that is named as a salt. Where two headings read alike, the source gives them in different places.
# Experiments:
# BRD4-BD1 = BRD4-BD1 (Homo sapiens (Human), UniProt O60885); test: BRD4 AlphaScreen Assay (Example A2), BRD4-BD1; type: binding
# Description: (§1) BRD4-BD1 and BRD4-BD2 assays were conducted in white 384-well polystyrene plate in a final volume of 40 μL for BD1 and 60 μL for BD2. Inhibitors were first serially diluted in DMSO and added to the plate wells before the addition of other reaction components. […] The assays were carried out at room temperature in the assay buffer (50 mM Tris-HCl, pH 7.5, 0.01% Tween-20, 0.01% BSA, 5 mM DTT), containing 50 nM Biotin-labeled tetra-acetylated histone H4 peptide (H4Ac4) and BRD4-BD1 or BRD4-BD2 protein at concentration less than 1 nM. […] After plate sealing, the plate was incubated in the dark at room temperature for 75 min. before reading on a PHERAstar FS plate reader (BMG Labtech). IC50 determination was performed by fitting the curve of percent control activity versus the log of the inhibitor concentration using the GraphPad Prism 5.0 software.
# BRD4-BD2 = BRD4-BD2 (Homo sapiens (Human), UniProt O60885); test: BRD4 AlphaScreen Assay (Example A2), BRD4-BD2; type: binding
# Description: as §1
# [1] = Assay A2, AlphaScreen, BRD4-BD1, read-out: BRD4 BD-1 enzyme IC50
# [2] = Assay A2, AlphaScreen, BRD4-BD2, read-out: BRD4 BD-2 enzyme IC50
smiles,measurement,setting,value
"Cc1noc(C)c1-c1ccc2nc(C(N)=O)n3c2c1OC[C@@H]3c1ccccn1 [Example 96, (4S)-7-(3,5-Dimethylisoxazol-4-yl)-4-pyridin-2-yl-4,5-dihydroimidazo[1,5,4-de][1,4]benzoxazine-2-carboxamide]",IC50,BRD4-BD1; [1],< 100 nM
same,IC50,BRD4-BD2; [2],< 100 nM
"Cc1noc(C)c1-c1cc(CNS(C)(=O)=O)c2[nH]c(=O)n3c2c1OC[C@@H]3c1ccccn1 [Example 141, N-{[(4S)-7-(3,5-Dimethylisoxazol-4-yl)-2-oxo-4-pyridin-2-yl-1,2,4,5-tetrahydroimidazo[1,5,4-de][1,4]benzoxazin-9-yl]methyl}methanesulfonamide]",IC50,BRD4-BD1; [1],< 100 nM
same,IC50,BRD4-BD2; [2],< 100 nM
"Cc1noc(C)c1-c1cc(-c2cccnc2)c2[nH]c(=O)n3c2c1OCC3c1ccccc1 (stereo not drawn) [Example 52, 7-(3,5-Dimethylisoxazol-4-yl)-4-phenyl-9-pyridin-3-yl-4,5-dihydroimidazo[1,5,4-de][1,4]benzoxazin-2(1H)-one]",IC50,BRD4-BD1; [1],< 100 nM
same,IC50,BRD4-BD2; [2],< 100 nM
"Cc1noc(C)c1-c1ccc2[nH]c(=O)n3c2c1OCC3(C)c1ccccn1 (stereo not drawn) [Example 69, 7-(3,5-Dimethylisoxazol-4-yl)-4-methyl-4-pyridin-2-yl-4,5-dihydroimidazo[1,5,4-de][1,4]benzoxazin-2(1H)-one]",IC50,BRD4-BD1; [1],< 100 nM
same,IC50,BRD4-BD2; [2],< 100 nM
"Cc1noc(C)c1-c1ccc2nc(C3CCNC3)n3c2c1OC[C@@H]3c1ccccn1 (single isomer, unassigned; diastereomer 2) [Example 106B]",IC50,BRD4-BD1; [1],< 100 nM
same,IC50,BRD4-BD2; [2],< 100 nM
"Cc1noc(C)c1-c1ccc2nc(N3CC(O)C3)n3c2c1OCC3c1cccnc1 (single isomer, unassigned) [Example 160B, 1-[7-(3,5-Dimethylisoxazol-4-yl)-4-pyridin-3-yl-4,5-dihydroimidazo[1,5,4-de][1,4]benzoxazin-2-yl]azetidin-3-ol]",IC50,BRD4-BD1; [1],1000 to 10000 nM
same,IC50,BRD4-BD2; [2],1000 to 10000 nM
"Cc1noc(C)c1-c1ccc2nc(C(=O)OC(C)(C)C)n3c2c1OC[C@@H]3c1ccccn1 [Example 93, tert-Butyl (4S)-7-(3,5-dimethylisoxazol-4-yl)-4-pyridin-2-yl-4,5-dihydroimidazo[1,5,4-de][1,4]benzoxazine-2-carboxylate]",IC50,BRD4-BD1; [1],< 100 nM
same,IC50,BRD4-BD2; [2],< 100 nM
"Cc1noc(C)c1-c1cc(CNC(=O)NC(C)C)c2[nH]c(=O)n3c2c1OC[C@@H]3c1ccccn1 [Example 142, N-{[(4S)-7-(3,5-Dimethylisoxazol-4-yl)-2-oxo-4-pyridin-2-yl-1,2,4,5-tetrahydroimidazo[1,5,4-de][1,4]benzoxazin-9-yl]methyl}-N′-isopropylurea]",IC50,BRD4-BD1; [1],100 to 1000 nM
same,IC50,BRD4-BD2; [2],< 100 nM
"Cc1noc(C)c1-c1ccc2nc(C3CCN(S(C)(=O)=O)CC3)n3c2c1OC[C@@H]3c1ccccn1 [Example 112, (4S)-7-(3,5-dimethylisoxazol-4-yl)-2-[1-(methylsulfonyl)piperidin-4-yl]-4-pyridin-2-yl-4,5-dihydroimidazo[1,5,4-de][1,4]benzoxazine]",IC50,BRD4-BD1; [1],< 100 nM
same,IC50,BRD4-BD2; [2],< 100 nM
"COC(=O)c1ncccc1C1COc2c(-c3c(C)noc3C)ccc3[nH]c(=O)n1c23 (racemic) [Example 132, Methyl 3-[7-(3,5-dimethylisoxazol-4-yl)-2-oxo-1,2,4,5-tetrahydroimidazo[1,5,4-de][1,4]benzoxazin-4-yl]pyridine-2-carboxylate]",IC50,BRD4-BD1; [1],< 100 nM
same,IC50,BRD4-BD2; [2],< 100 nM
"Cc1noc(C)c1-c1ccc2[nH]c(=O)n3c2c1OCC3C1CCCCN1S(C)(=O)=O (stereo not drawn) [Example 79, 7-(3,5-dimethylisoxazol-4-yl)-4-[1-(methylsulfonyl)piperidin-2-yl]-4,5-dihydroimidazo[1,5,4-de][1,4]benzoxazin-2(1H)-one]",IC50,BRD4-BD1,1000 to 10000 nM
same,IC50,BRD4-BD2,1000 to 10000 nM
"Cc1noc(C)c1-c1cc(-c2ccnc(O)c2)c2[nH]c(=O)n3c2c1OC[C@@H]3c1ccccn1 [Example 260, (4S)-7-(3,5-dimethylisoxazol-4-yl)-9-(2-hydroxypyridin-4-yl)-4-pyridin-2-yl-4,5-dihydroimidazo[1,5,4-de][1,4]benzoxazin-2(1H)-one]",IC50,BRD4-BD1; [1],100 to 1000 nM
same,IC50,BRD4-BD2; [2],< 100 nM
"Cc1noc(C)c1-c1cc(-c2cncnc2)c2[nH]c(=O)n3c2c1OC[C@@H]3c1ccccn1 [Example 84, (4S)-7-(3,5-dimethylisoxazol-4-yl)-4-pyridin-2-yl-9-pyrimidin-5-yl-4,5-dihydroimidazo[1,5,4-de][1,4]benzoxazin-2(1H)-one 2,2,2-trifluoroacetate]",IC50,BRD4-BD1; [1],100 to 1000 nM
same,IC50,BRD4-BD2; [2],< 100 nM
"Cc1noc(C)c1-c1ccc2[nH]c(=O)n3c2c1OC(C(=O)NCCO)C3c1ccccc1 (single isomer, unassigned) [Example 48A, 7-(3,5-Dimethylisoxazol-4-yl)-N-(2-hydroxyethyl)-2-oxo-4-phenyl-1,2,4,5-tetrahydroimidazo[1,5,4-de][1,4]benzoxazine-5-carboxamide]",IC50,BRD4-BD1; [1],100 to 1000 nM
same,IC50,BRD4-BD2; [2],< 100 nM
"Cc1noc(C)c1-c1cc(F)c2nc(N(C)C)n3c2c1OCC3c1cccnc1 (stereo not drawn) [Example 156, 7-(3,5-Dimethylisoxazol-4-yl)-9-fluoro-N,N-dimethyl-4-pyridin-3-yl-4,5-dihydroimidazo[1,5,4-de][1,4]benzoxazin-2-amine]",IC50,BRD4-BD1; [1],100 to 1000 nM
same,IC50,BRD4-BD2; [2],< 100 nM
"Cc1noc(C)c1-c1ccc2[nH]c(=O)n3c2c1CCC3c1ccccn1 (stereo not drawn) [Example 123, 7-(3,5-Dimethylisoxazol-4-yl)-4-pyridin-2-yl-5,6-dihydro-4H-imidazo[4,5,1-ij]quinolin-2(1H)-one trifluoroacetate]",IC50,BRD4-BD1; [1],100 to 1000 nM
same,IC50,BRD4-BD2; [2],< 100 nM
"Cc1noc(C)c1-c1ccc2nc(C3CCCN(C(=O)C4CC4)C3)n3c2c1OC[C@@H]3c1ccccn1 (mixture of isomers) [Example 118, (4S)-2-[1-(cyclopropylcarbonyl)piperidin-3-yl]-7-(3,5-dimethylisoxazol-4-yl)-4-pyridin-2-yl-4,5-dihydroimidazo[1,5,4-de][1,4]benzoxazine (mixture of diastereomers)]",IC50,BRD4-BD1; [1],< 100 nM
same,IC50,BRD4-BD2; [2],< 100 nM
"Cc1noc(C)c1-c1ccc2nc(C3CCN(C(=O)C4CC4)CC3)n3c2c1OC[C@@H]3c1ccccn1 [Example 111, (4S)-2-[1-(cyclopropylcarbonyl)piperidin-4-yl]-7-(3,5-dimethylisoxazol-4-yl)-4-pyridin-2-yl-4,5-dihydroimidazo[1,5,4-de][1,4]benzoxazine]",IC50,BRD4-BD1; [1],< 100 nM
same,IC50,BRD4-BD2; [2],< 100 nM
"CC(=O)N1CC=C(c2nc3ccc(-c4c(C)noc4C)c4c3n2[C@@H](c2ccccn2)CO4)CC1 [Example 110, (4S)-2-(1-acetyl-1,2,3,6-tetrahydropyridin-4-yl)-7-(3,5-dimethylisoxazol-4-yl)-4-pyridin-2-yl-4,5-dihydroimidazo[1,5,4-de][1,4]benzoxazine]",IC50,BRD4-BD1; [1],< 100 nM
same,IC50,BRD4-BD2; [2],< 100 nM
"Cc1noc(C)c1-c1ccc2nc(C(=O)N3CCOCC3)n3c2c1OC[C@@H]3c1ccccn1 [Example 94, (4S)-7-(3,5-Dimethylisoxazol-4-yl)-2-(morpholin-4-ylcarbonyl)-4-pyridin-2-yl-4,5-dihydroimidazo[1,5,4-de][1,4]benzoxazine]",IC50,BRD4-BD1; [1],< 100 nM
same,IC50,BRD4-BD2; [2],< 100 nM
"CC(=O)N1CCC(c2nc3ccc(-c4c(C)noc4C)c4c3n2[C@@H](c2ccccn2)CO4)C1 (single isomer, unassigned; diastereomer 1) [Example 113A]",IC50,BRD4-BD1; [1],< 100 nM
same,IC50,BRD4-BD2; [2],< 100 nM
"CC(=O)N1CCC(c2nc3ccc(-c4c(C)noc4C)c4c3n2[C@@H](c2ccccn2)CO4)C1 (single isomer, unassigned; diastereomer 2) [Example 113B]",IC50,BRD4-BD1; [1],< 100 nM
same,IC50,BRD4-BD2; [2],< 100 nM
"Cc1noc(C)c1-c1ccc2[nH]c(=O)n3c2c1OCC3c1cccnc1C#N (racemic) [Example 126, 3-[7-(3,5-Dimethylisoxazol-4-yl)-2-oxo-1,2,4,5-tetrahydroimidazo[1,5,4-de][1,4]benzoxazin-4-yl]pyridine-2-carbonitrile]",IC50,BRD4-BD1; [1],100 to 1000 nM
same,IC50,BRD4-BD2; [2],< 100 nM
"Cc1noc(C)c1-c1cc(F)c2[nH]c(=O)n3c2c1OCC3c1ccccn1 (stereo not drawn) [Example 265A, 7-(3,5-dimethylisoxazol-4-yl)-9-fluoro-4-pyridin-2-yl-4,5-dihydroimidazo[1,5,4-de][1,4]benzoxazin-2(1H)-one]",IC50,BRD4-BD1; [1],1000 to 10000 nM
same,IC50,BRD4-BD2; [2],1000 to 10000 nM
"Cc1noc(C)c1-c1ccc2nc(N3CC[C@@H](NC(=O)N4CCOCC4)C3)n3c2c1OC[C@@H]3c1ccccn1 [Example 153, N-{(3R)-1-[(4S)-7-(3,5-Dimethylisoxazol-4-yl)-4-pyridin-2-yl-4,5-dihydroimidazo[1,5,4-de][1,4]benzoxazin-2-yl]pyrrolidin-3-yl}morpholine-4-carboxamide]",IC50,BRD4-BD1; [1],< 100 nM
same,IC50,BRD4-BD2; [2],< 100 nM
"Cc1noc(C)c1-c1cc(-c2cccnc2O)c2[nH]c(=O)n3c2c1OC[C@@H]3c1ccccn1 [Example 261, (4S)-7-(3,5-dimethylisoxazol-4-yl)-9-(2-hydroxypyridin-3-yl)-4-pyridin-2-yl-4,5-dihydroimidazo[1,5,4-de][1,4]benzoxazin-2(1H)-one]",IC50,BRD4-BD1; [1],100 to 1000 nM
same,IC50,BRD4-BD2; [2],< 100 nM
Cc1noc(C)c1-c1ccc2nc(N3CCC(NC(=O)C(C)C)CC3)n3c2c1OCC3c1ccccn1 (stereo not drawn) [Example 244],IC50,BRD4-BD2; [2],< 100 nM
"Cc1noc(C)c1-c1ccc2nc(C3CCN(C(=O)C4CC4)C3)n3c2c1OC[C@@H]3c1ccccn1 (single isomer, unassigned; diastereomer 2) [Example 114B]",IC50,BRD4-BD1; [1],< 100 nM
